{"source": "patent US4309559A", "about": "“Sulphonamides useful as pesticides” (FBC Limited, priority 1977, dated 1982)", "assay_type_in_all_cases": "in vivo", "key": {"[1]": {"system": "Barley (Hordeum vulgare)", "test": "Pre-emergence soil surface spray, barley", "conditions": "soil surface spray 2.8 kg/ha, 21 days, 0=no effect, 100=complete kill", "in_short": "(§1)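 Herbicidal or growth regulatory effects were rated on a 0-100 scale after 21 days under 14 hours per day artificial illumination at 22° C. Before emergence, compost in which seeds had been sown received a surface spray of 2.8 kg active ingredient per hectare, applied in 450 liters per hectare.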"}, "[2]": {"system": "Peas (Pisum sativum)", "test": "Soil incorporation (attaclay/sand dust), growth regulatory or herbicidal effects, peas", "conditions": "Lathyrus oleraceus, 504 h, soil incorporation 26 ppm, 21 days, 0=no effect, 100=complete kill, read-out: growth regulatory or herbicidal effect score", "in_short": "(§2)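 Scores (0-100, where 100 means complete kill) were given by visual assessment against untreated plants after 21 days in a 22° C controlled environment room with 14 h of 13,000 lux light daily. Seeds had been sown into compost containing the attaclay/sand dust formulation at 26 or 130 ppm w/v.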"}, "[3]": {"system": "Pythium ultimum", "test": "Fungal growth on the surface of soil infected with damping-off disease organism", "conditions": "6 days, 25° C., 0-8 scale"}, "[4]": {"system": "Barnyardgrass (Echinochloa crus-galli)", "test": "Pre-emergence soil surface spray, barnyardgrass", "conditions": "soil surface spray 2.8 kg/ha, 21 days, 0=no effect, 100=complete kill", "in_short": "as §1"}, "[5]": {"system": "Linseed (Linum usitatissimum)", "test": "Soil incorporation (attaclay/sand dust), growth regulatory or herbicidal effects, linseed", "conditions": "504 h, soil incorporation 26 ppm, 21 days, 0=no effect, 100=complete kill, read-out: growth regulatory or herbicidal effect score", "in_short": "as §2"}}, "data": [{"molecule": "CCCS(=O)(=O)N(c1c(C)cccc1C)C(C)C(=O)OCC", "note": "(stereo not drawn) [Example 24, N-(1-[ethoxycarbonyl]ethyl)-2',6'-dimethyl-1-propanesulphonanilide]", "values": [{"measurement": "growth regulatory or herbicidal effect score", "setting": "[1]", "value": 30}, {"measurement": "pest or weed control at 26 µg/mL", "setting": "[2]", "value": 0, "unit": "%"}, {"measurement": "Mycelial Control Score", "setting": "[3]; 30 ppm", "value": "0 (<20% inhibition)"}, {"measurement": "Mycelial Control Score", "setting": "[3]; 100 ppm", "value": "0 (<20% inhibition)"}, {"measurement": "growth regulatory or herbicidal effect score", "setting": "[4]", "value": 80}, {"measurement": "pest or weed control at 26 µg/mL", "setting": "[5]", "value": 100, "unit": "%"}]}]}
